Test results from ChEMBL document CHEMBL3217485, “Understanding and overcoming aminoglycoside resistance caused by N-6'-acetyltransferase” (Medchemcomm, 2012).
In brackets after ≈: the same amount, converted by molar mass. Activity calls are given as the source filed them. The calls are words filed in the database; no cut-off is given here. Where a SMILES comes first, the peptide text is derived from it. [ ]: non-standard residue; d: D form. Orn = NCCC[C@H](N)C(=O)O

Tests used:
[1] = Inhibition of AAC(6')-li (unknown origin)
Aac(6')-Ii protein = Aac(6')-Ii protein (Enterococcus faecium, UniProt Q47764); assay: Inhibition of Enterococcus faecium AAC(6')-li
Chain of Aac(6')-Ii protein (Q47764 whole entry): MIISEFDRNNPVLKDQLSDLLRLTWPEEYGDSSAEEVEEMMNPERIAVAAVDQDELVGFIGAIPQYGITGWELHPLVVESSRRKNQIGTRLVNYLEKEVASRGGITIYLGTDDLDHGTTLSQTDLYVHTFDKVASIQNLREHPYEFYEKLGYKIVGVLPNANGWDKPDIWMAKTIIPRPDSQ

[2] = Activity at AAC(6')-li (unknown origin)
Escherichia coli [3] = assay: Antibacterial activity against Escherichia coli ATCC 25922; format: functional
[4] = Binding affinity to biotinylated Escherichia coli 16S rRNA A-site
[5] = Ratio of Kcat to Km for AAC(6')-li (unknown origin)
[6] = Inhibition of AAC(6')-le (unknown origin)
Escherichia coli [7] = assay: Antibacterial activity against kanamycin-resistant Escherichia coli K-12 R5 expressing AAC(6') enzyme; format: functional
Pseudomonas aeruginosa = assay: Antibacterial activity against kanamycin-resistant Pseudomonas aeruginosa GN315 expressing AAC(6') enzyme; format: functional
[8] = Binding affinity to AAC(6')-lb (unknown origin)

CC(C)(COP(=O)(O)OP(=O)(O)OC[C@H]1O[C@@H](n2cnc3c(N)ncnc32)[C@H](O)[C@@H]1OP(=O)(O)O)[C@@H](O)C(=O)NCCC(=O)NCCSCCCC(=O)NC[C@H]1O[C@H](O[C@H]2[C@H](O)[C@@H](O)[C@H](N)C[C@@H]2N)[C@H](N)[C@@H](O)[C@@H]1O
Ki [1]: 0.161 µM

CC(C)(CO)[C@@H](O)C(=O)NCCC(=O)NCCSCC(=O)NC[C@H]1O[C@H](O[C@H]2[C@H](O)[C@@H](O)[C@H](N)C[C@@H]2N)[C@H](N)[C@@H](O)[C@@H]1O
Ki (Aac(6')-Ii protein): ≥ 500 µM

CC(C)(CO)[C@@H](O)C(=O)NCCC(=O)NCCSCCCC(=O)NC[C@H]1O[C@H](O[C@H]2[C@H](O)[C@@H](O)[C@H](N)C[C@@H]2N)[C@H](N)[C@@H](O)[C@@H]1O
Ki (Aac(6')-Ii protein): ≥ 500 µM

NC[C@H]1O[C@H](O[C@H]2[C@H](O)[C@@H](O)[C@H](N)C[C@@H]2N)[C@H](N)[C@@H](O)[C@@H]1O [NEAMINE]
Km [2]: 5.82 µM
kcat [2]: 0.419 s⁻¹
MIC (Escherichia coli [3]): 50 µM (≈ 16.1 µg/mL)
Kd [4]: 10 µM
kcat/Km [5]: 7.2 ×10⁴ /M/s

H-KWKKFIKSLTKAAKTVVKTAKKPLIV-OH
IC50 [1]: 24 µM
inhibition [6]: inactive

NCC(=O)NC[C@H]1O[C@H](O[C@H]2[C@H](O)[C@@H](O)[C@H](N)C[C@@H]2N)[C@H](N)[C@@H](O)[C@@H]1O
Km [2]: > 500 µM

CC(C)(CO)[C@@H](O)C(=O)NCCC(=O)NCCSCCCCC(=O)NC[C@H]1O[C@H](O[C@H]2[C@H](O)[C@@H](O)[C@H](N)C[C@@H]2N)[C@H](N)[C@@H](O)[C@@H]1O
Ki (Aac(6')-Ii protein): ≥ 500 µM

H-ILKKWPWWPWRRK-OH
IC50 [1]: 23 µM
inhibition [6]: inactive

CNC[C@H]1O[C@H](O[C@H]2[C@H](O)[C@@H](O[C@@H]3O[C@@H](CO)[C@H](O)[C@@H](N)[C@@H]3O)[C@H](NC(=O)[C@@H](O)CCN)C[C@@H]2N)[C@H](O)[C@@H](O)[C@@H]1O
MIC (Escherichia coli [7]): 1.56 µg/mL (≈ 2.6 µM)
MIC (Pseudomonas aeruginosa): 25 µg/mL (≈ 41.7 µM)

CC[C@H](C)[C@H](N)C(=O)N[C@@H](CC(C)C)C(=O)N1CCC[C@H]1C(=O)N[C@@H](Cc1c[nH]c2ccccc12)C(=O)N[C@@H](CCCCN)C(=O)N[C@@H](Cc1c[nH]c2ccccc12)C(=O)N1CCC[C@H]1C(=O)N[C@@H](Cc1c[nH]c2ccccc12)C(=O)N[C@@H](Cc1c[nH]c2ccccc12)C(=O)N1CCC[C@H]1C(=O)N[C@@H](Cc1c[nH]c2ccccc12)C(=O)N[C@@H](CCCN=C(N)N)C(=O)N[C@@H](CCCN=C(N)N)C(N)=O
IC50 [1]: 13 µM
inhibition [6]: inactive

CNC[C@H]1O[C@H](O[C@H]2[C@H](O)[C@@H](O[C@@H]3O[C@@H](CO)[C@H](O)[C@@H](N)[C@@H]3O)[C@H](N)C[C@@H]2N)[C@H](O)[C@@H](O)[C@@H]1O
MIC (Escherichia coli [7]): 1.56 µg/mL (≈ 3.13 µM)
MIC (Pseudomonas aeruginosa): > 100 µg/mL

CC(C)(COP(=O)(O)OP(=O)(O)OC[C@H]1O[C@@H](n2cnc3c(N)ncnc32)[C@H](O)[C@@H]1OP(=O)(O)O)[C@@H](O)C(=O)NCCC(=O)NCCSCCCCC(=O)NC[C@H]1O[C@H](O[C@H]2[C@H](O)[C@@H](O)[C@H](N)C[C@@H]2N)[C@H](N)[C@@H](O)[C@@H]1O
Ki [1]: 8 µM

H-ILAWKWAWWAWRR-OH
IC50 [1]: 4.4 µM
inhibition [6]: inactive

CN(CCCCN(C)C[C@@H](O)CO[C@@H]1[C@@H](O)[C@H](N)C[C@H](N)[C@H]1O[C@H]1O[C@H](CN)[C@@H](O)[C@H](O)[C@H]1N)C[C@@H](O)CO[C@@H]1[C@@H](O)[C@H](N)C[C@H](N)[C@H]1O[C@H]1O[C@H](CN)[C@@H](O)[C@H](O)[C@H]1N
Km [2]: 28.7 µM
kcat [2]: 0.26 s⁻¹
MIC (Escherichia coli [3]): 6.25 µM (≈ 5.46 µg/mL)
Kd [4]: 0.04 µM
kcat/Km [5]: 0.93 ×10⁴ /M/s

H-KWKSFIKKLTSAAKKVTTAAKPLTK-OH
inhibition [1]: inactive
IC50 [6]: 38 µM

NC[C@H]1O[C@H](O[C@H]2[C@H](OCC(=O)NCCCCCNC(=O)CO[C@@H]3[C@@H](O)[C@H](N)C[C@H](N)[C@H]3O[C@H]3O[C@H](CN)[C@@H](O)[C@H](O)[C@H]3N)[C@@H](O)[C@H](N)C[C@@H]2N)[C@H](N)[C@@H](O)[C@@H]1O
Km [2]: 83.6 µM
kcat [2]: 1.89 s⁻¹
MIC (Escherichia coli [3]): 125 µM (≈ 103 µg/mL)
Kd [4]: 0.8 µM
kcat/Km [5]: 2.26 ×10⁴ /M/s

CNC[C@@H]1CC[C@@H](N)[C@@H](O[C@H]2[C@H](O)[C@@H](O[C@@H]3O[C@@H](CO)[C@H](O)[C@@H](N)[C@@H]3O)[C@H](N)C[C@@H]2N)O1
MIC (Escherichia coli [7]): 1.56 µg/mL (≈ 3.35 µM)
MIC (Pseudomonas aeruginosa): 12.5 µg/mL (≈ 26.9 µM)

CC(C)(COP(=O)(O)OP(=O)(O)OC[C@H]1O[C@@H](n2cnc3c(N)ncnc32)[C@H](O)[C@@H]1OP(=O)(O)O)[C@@H](O)C(=O)NCCC(=O)NCCSCCC(=O)NC[C@H]1O[C@H](O[C@H]2[C@H](O)[C@@H](O)[C@H](N)C[C@@H]2N)[C@H](N)[C@@H](O)[C@@H]1O
Ki [1]: 0.043 µM

CC(C)(COC(=O)CCC(=O)O)[C@@H](O)C(=O)NCCC(=O)NCCSCC(=O)NC[C@H]1O[C@H](O[C@H]2[C@H](O)[C@@H](O)[C@H](N)C[C@@H]2N)[C@H](N)[C@@H](O)[C@@H]1O
Ki (Aac(6')-Ii protein): ≥ 1000 µM

N[C@H]1C[C@H](Oc2ccccc2[N+](=O)[O-])[C@@H](N)C1
Kd [8]: 23 µM

NC[C@@H]1CC[C@@H](N)[C@@H](O[C@H]2[C@H](O)[C@@H](O[C@H]3O[C@H](CO)[C@@H](O)[C@H](N)[C@H]3O)[C@H](N)C[C@@H]2N)O1 [DIBEKACIN]
MIC (Escherichia coli [7]): 25 µg/mL (≈ 55.4 µM)
MIC (Pseudomonas aeruginosa): > 100 µg/mL

CC(C)(COP(=O)(O)OP(=O)(O)OC[C@H]1O[C@@H](n2cnc3c(N)ncnc32)[C@H](O)[C@@H]1OP(=O)(O)O)[C@@H](O)C(=O)NCCC(=O)NCCSCCCCCC(=O)NC[C@H]1O[C@H](O[C@H]2[C@H](O)[C@@H](O)[C@H](N)C[C@@H]2N)[C@H](N)[C@@H](O)[C@@H]1O
Ki [1]: 5.2 µM

CC(=O)CC(=O)N(CCc1ccccc1)CC(C)(C)[C@@H](O)C(=O)NCCC(=O)NCCSCC(=O)NC[C@H]1O[C@H](O[C@H]2[C@H](O)[C@@H](O)[C@H](N)C[C@@H]2N)[C@H](N)[C@@H](O)[C@@H]1O
Ki (Aac(6')-Ii protein): ≥ 200 µM

N#Cc1ccc(O[C@H]2C[C@H](N)C[C@@H]2N)cc1
Kd [8]: 20 µM

CC(=O)CC(=O)N(CCCc1ccccc1)CC(C)(C)[C@@H](O)C(=O)NCCC(=O)NCCSCC(=O)NC[C@H]1O[C@H](O[C@H]2[C@H](O)[C@@H](O)[C@H](N)C[C@@H]2N)[C@H](N)[C@@H](O)[C@@H]1O
Ki (Aac(6')-Ii protein): ≥ 200 µM

CC(C)(COP(=O)(O)OP(=O)(O)OC[C@H]1O[C@@H](n2cnc3c(N)ncnc32)[C@H](O)[C@@H]1OP(=O)(O)O)[C@@H](O)C(=O)NCCC(=O)NCCSCC(=O)NC[C@H]1O[C@H](O[C@H]2[C@H](O)[C@@H](O)[C@H](N)C[C@@H]2N)[C@H](N)[C@@H](O)[C@@H]1O
Ki [1]: 0.076 µM

CCNC[C@H]1O[C@H](O[C@H]2[C@H](O)[C@@H](O[C@@H]3O[C@@H](CO)[C@H](O)[C@@H](N)[C@@H]3O)[C@H](NC(=O)[C@@H](O)CCN)C[C@@H]2N)[C@H](O)[C@@H](O)[C@@H]1O
MIC (Escherichia coli [7]): 1.56 µg/mL (≈ 2.54 µM)
MIC (Pseudomonas aeruginosa): 100 µg/mL (≈ 163 µM)

CC[C@H](C)[C@H](NC(=O)[C@H](CC(C)C)NC(=O)[C@H](C)NC(=O)[C@@H]1CCCN1C(=O)[C@H](CC(C)C)NC(=O)CNC(=O)[C@@H](NC(=O)[C@@H](NC(=O)[C@H](CC(C)C)NC(=O)[C@@H](NC(=O)[C@H](CCCCN)NC(=O)[C@H](CCCCN)NC(=O)[C@@H](NC(=O)[C@H](C)NC(=O)[C@@H](NC(=O)[C@@H](NC(=O)[C@H](CC(C)C)NC(=O)[C@H](CCCCN)NC(=O)[C@H](CCCCN)NC(=O)[C@@H](NC(=O)[C@H](Cc1ccccc1)NC(=O)[C@H](CO)NC(=O)[C@H](CCCCN)NC(=O)[C@H](Cc1c[nH]c2ccccc12)NC(=O)[C@@H](N)CCCCN)[C@@H](C)CC)[C@@H](C)O)[C@@H](C)O)C(C)C)C(C)C)[C@@H](C)O)[C@@H](C)O)C(=O)N[C@@H](CO)C(=O)O
inhibition [1]: inactive
IC50 [6]: 21 µM

CC(C)C[C@@H]1NC(=O)[C@H](CCCN)NC(=O)[C@H](C(C)C)NC(=O)[C@@H]2CCCN2C(=O)[C@@H](Cc2ccccc2)NC(=O)[C@H](CC(C)C)NC(=O)[C@H](CCCN)NC(=O)[C@H](C(C)C)NC(=O)[C@@H]2CCCN2C(=O)[C@@H](Cc2ccccc2)NC1=O [GRAMICIDIN S] (cyclo(L[dF]PV[Orn]L[dF]PV[Orn]))
inhibition [1]: inactive
IC50 [6]: 14 µM

CC(C)(CO)[C@@H](O)C(=O)NCCC(=O)NCCSCCC(=O)NC[C@H]1O[C@H](O[C@H]2[C@H](O)[C@@H](O)[C@H](N)C[C@@H]2N)[C@H](N)[C@@H](O)[C@@H]1O
Ki (Aac(6')-Ii protein): ≥ 500 µM

CC(=O)CC(=O)N(Cc1ccccc1)CC(C)(C)[C@@H](O)C(=O)NCCC(=O)NCCSCC(=O)NC[C@H]1O[C@H](O[C@H]2[C@H](O)[C@@H](O)[C@H](N)C[C@@H]2N)[C@H](N)[C@@H](O)[C@@H]1O
Ki (Aac(6')-Ii protein): ≥ 200 µM

CC(=O)CC(=O)NCC(C)(C)[C@@H](O)C(=O)NCCC(=O)NCCSCC(=O)NC[C@H]1O[C@H](O[C@H]2[C@H](O)[C@@H](O)[C@H](N)C[C@@H]2N)[C@H](N)[C@@H](O)[C@@H]1O
Ki (Aac(6')-Ii protein): ≥ 200 µM

N[C@H]1[C@@H](O[C@H]2[C@H](O)[C@@H](O)[C@H](N)C[C@@H]2N)O[C@H](CNC(=O)CO)[C@@H](O)[C@@H]1O
Km [2]: > 500 µM

CC(C)C[C@H](NC(=O)[C@H](CCCNC(=N)N)NC(=O)CNC(=O)CNC(=O)[C@@H](N)CCCNC(=N)N)C(=O)N[C@@H](CS)C(=O)N[C@@H](Cc1ccc(O)cc1)C(=O)N[C@@H](CS)C(=O)N[C@@H](CCCNC(=N)N)C(=O)N[C@@H](CCCNC(=N)N)C(=O)N[C@@H](CCCNC(=N)N)C(=O)N[C@@H](Cc1ccccc1)C(=O)N[C@@H](CS)C(=O)N[C@H](C(=O)N[C@@H](CS)C(=O)N[C@H](C(=O)NCC(=O)N[C@@H](CCCNC(=N)N)C(=O)O)C(C)C)C(C)C (H-RGGRLCYCRRRFCVCVGR-OH)
inhibition [1]: inactive
inhibition [6]: inactive

Nc1cccc(C(=O)O[C@H]2C[C@H](N)C[C@@H]2N)c1
Kd [8]: 57 µM

NC[C@@H]1O[C@@H](O[C@H]2[C@H](O)[C@@H](O[C@H]3O[C@H](CO)[C@@H](O)[C@H](N)[C@H]3O)[C@H](N)C[C@@H]2N)[C@@H](O)[C@H](O)[C@H]1O [KANAMYCIN A]
MIC (Escherichia coli [7]): 25 µg/mL (≈ 51.6 µM)
MIC (Pseudomonas aeruginosa): > 100 µg/mL

CC(C)(CO)[C@@H](O)C(=O)NCCC(=O)NCCSCCCCCC(=O)NC[C@H]1O[C@H](O[C@H]2[C@H](O)[C@@H](O)[C@H](N)C[C@@H]2N)[C@H](N)[C@@H](O)[C@@H]1O
Ki (Aac(6')-Ii protein): ≥ 500 µM

N[C@@H]1C[C@H](N)[C@@H](O)C1
Kd [8]: 41 µM
